Assay results published in US7012089B2, “[1,4]Diazocino[7,8,1-hi]indole derivatives as antipsychotic and antiobesity agents” (Wyeth, priority 2002, dated 2006).
Counter-ions that a name gives are not always drawn. Like-named read-outs stand apart in the source and are kept apart here.

Experiments:
[1] = molecular target: T1, human 5-HT2C receptor (Homo sapiens, UniProt P28335); assay: 5-HT2C receptor-stimulated calcium mobilization (FLIPR) in CHO cells; type: cell-based; conditions: for Emax: CHO, read-out: 5-HT2C Function Emax (%)
T1 sequence (P28335 33-458): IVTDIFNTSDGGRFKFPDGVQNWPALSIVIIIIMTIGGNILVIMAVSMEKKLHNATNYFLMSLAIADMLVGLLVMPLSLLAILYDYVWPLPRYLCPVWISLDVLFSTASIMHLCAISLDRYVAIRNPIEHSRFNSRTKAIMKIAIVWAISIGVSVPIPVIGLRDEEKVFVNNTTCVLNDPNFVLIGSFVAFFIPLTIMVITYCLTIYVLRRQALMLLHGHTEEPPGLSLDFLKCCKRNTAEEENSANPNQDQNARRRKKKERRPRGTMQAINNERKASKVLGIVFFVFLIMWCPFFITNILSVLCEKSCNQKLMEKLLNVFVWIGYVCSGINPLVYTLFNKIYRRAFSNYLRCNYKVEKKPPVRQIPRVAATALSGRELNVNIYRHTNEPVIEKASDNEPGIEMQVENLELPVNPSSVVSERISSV

[2] = molecular target: T2, human 5-hydroxytryptamine-2C (h-5-HT2C) receptor (Homo sapiens, UniProt P28335); assay: [125I]DOI binding to membranes of CHO cells expressing the h-5-HT2C receptor
T2 sequence (P28335 33-458): T1 sequence (P28335 33-458)

[3] = 5-HT2c Affinity KI (nM), displacement of [125I]DOI, CHO cell membranes

| SMILES | melting point [°C] | EC50 [1] [nM] | Emax [1] [%] | Ki [2, 3] [nM] | Ki ([2]; read-out: 5-HT2c Affinity KI) [nM] |
| --- | --- | --- | --- | --- | --- |
| c1cc2c3c(c1)[C@H]1CCCC[C@H]1N3CCNCC2 (single isomer, unassigned) (as salt: fumarate) [Example 47, (+)-(8bR*,12aR*)-2,3,4,5,8b,9,10,11,12,12a-Decahydro-1H-[1,4]diazocino[7,8,1-jk]carbazole] | 139 to 140 | – | – | – | – |
| c1cc2c3c(c1)[C@H]1CCC[C@H]1N3CCNCC2 (single isomer, unassigned) (as salt: hydrochloride) [Example 45, (+)-(8bR*,11aR*)-2,3,4,5,9,10,11,11a-Octahydro-1H,8bH-cyclopenta[b][1,4]diazocino[7,8,1-hi]indole] | > 130 | – | – | – | – |
| CN1CCc2cccc3c4c(n(c23)CC1)CCC4 [Example 1, 3-Methyl-2,3,4,5,10,11-hexahydro-1H,9H-cyclopenta[b][1,4]diazocino[7,8,1-hi]indole] | 128 to 130 | 48 | 45 | 35 | – |
| CN1CCc2cccc3c4c(n(c23)CC1)CCCC4 [Example 5] | 129 to 131 | 68 | 50 | 10 | – |
| CN1CCc2cccc3c4c(n(c23)CC1)CCSC4 [Example 11, 3-Methyl-2,3,4,5,11,12-hexahydro-1H,9H-[1,4]diazocino[7,8,1-hi]thiopyrano[4,3-b]indole] | 123 to 125 | – | – | 38 | – |
| CN1CCc2c(Cl)ccc3c4c(n(c23)CC1)CCC4 [Example 12, 6-Chloro-3-methyl-2,3,4,5,10,11-hexahydro-1H,9H-cyclopenta[b][1,4]diazocino[7,8,1-hi]indole] | 138 to 140 | – | – | – | 250 |
| CN1CCc2c(Cl)ccc3c4c(n(c23)CC1)CCCC4 [Example 13, 6-Chloro-3-methyl-2,3,4,5,9,10,11,12-octahydro-1H-[1,4]diazocino[7,8,1-jk]carbazole] | 128 to 130 | – | – | 34 | – |
| CN1CCc2c(Cl)ccc3c4c(n(c23)CC1)CCCCC4 [Example 14, 6-Chloro-3-methyl-2,3,4,5,10,11,12,13-octahydro-1H,9H-cyclohepta[b][1,4]diazocino[7,8,1-hi]indole] | 132 to 134 | – | – | – | 250 |
